According to patent US20110183969A1, “ANTIFUNGAL COMBINATION THERAPY” (priority 2008, published 2011):
In brackets after ≈: the same amount, converted by molar mass. Read-outs that look alike come from different tables or passages of the source.

Key:
Assay in all cases: MIC (YAG medium)
Type in all cases: cell-based
Aspergillus flavus = settings: for MIC: Aspergillus flavus, read-out: MIC A. flavus (grade)
Description: (§1) Between 1 and 5 mgs of compound were accurately weighed out into a sterile Eppendorf tube. The compound was dissolved in DMSO to give a solution containing 5 mg/mL. Tubes were stored at −20° C. until required.
(§2) On the day of testing thawed solutions were vortex mixed to ensure homogeneity. 30 μL of solution was removed and added to 570 μL of sterile water in a separate sterile Eppendorf The thoroughly mixed solution was used to prepare a series of doubling dilutions in water, in a deep well plate. […] replicate plates were prepared using a Minitrak by aspirating 20 μL from each well into eleven clear polystyrene 96 well plates.
(§3) Spores of Aspergillus spp. (Aspergillus fumigatus [two strains], Aspergillus terreus [two strains], Aspergillus niger and Aspergillus flavus) were harvested from cultures grown on Sabarauds agar for 5 days, and resuspended in PBS/Tween 80 to approx 1×10^7 cfu/mL. Other filamentous fungi (Absidia corymbifera, Fusarium solani, Rhizomucor, Scedosporium spp., Trichophyton spp.), were grown on Sabarauds agar for 2-10 days and spores/hyphae resuspended in PBS/Tween to give approx 1×10^7 cfu/mL. Candida species (Candida albicans, Candida glabrata, Candida krusei, Candida parapsilosis and Candida tropicalis) were grown on Sabarauds agar, cells were harvested from the agar using a sterile loop and resuspended in PBS/Tween 80 to approx 1×10^6 cfu/mL. Each organism suspension was diluted in RPMI medium, containing 2% glucose and 0.135 M MOPS buffer (pH 7.0) to 0.5−2×10^4 cfu/mL for Aspergillus spp. and other filamentous fungi and 0.5-2×10^3 cfu/mL for yeast. 80 μL of an organism suspension was added to each well of the plate containing drug dilutions.
(§4) This produced MIC plates with a drug range 50-0.05 mg/L and organism inocula of 1-2×10^4 cfu/mL for Aspergillus spp. and other filamentous fungi and 1-2×10^3 cfu/mL for yeasts. All plates were incubated for 24-48 hrs at 35° C. Growth was assessed by monitoring the optical density at 485 nm for each well. The MIC of a compound is the lowest drug concentration that inhibits growth of an organism by >80% compared with a drug free control. MICs are recorded as mg/L. Other growth media can be used for susceptibility testing, and the activity of the described compounds can also be assessed in a medium comprising 1% glucose, 1% ammonium chloride and 0.5% yeast extract (YAG medium). To perform MIC tests in this medium, dilutions of compounds are prepared in microtitre plates as described above. Fungal strains to be tested are grown and harvested in an identical manner to that described above, each organism suspension is then diluted in YAG medium to 0.5-2×10^4 cfu/mL for Aspergillus spp. and other filamentous fungi and 0.5-2×10^3 cfu/mL for yeast. 80 μL of an organism suspension was added to each well of the plate containing drug dilutions. This produced MIC plates with a drug range 50-0.05 mg/L and organism inocula of 1-2×10^4 cfu/mL for Aspergillus spp. and other filamentous fungi and 1-2×10^3 cfu/mL for yeasts. All plates were incubated for 24 hrs at 35° C. Growth was assessed by monitoring the optical density at 485 nm for each well. The MIC of a compound is the lowest drug concentration that inhibits growth of an organism by >70% compared with a drug free control. MICs are recorded as mg/L. In cases where the MIC of an organism is […] mg/L the MIC is repeated using a concentration range of 0.5-0.0005 mg/L. MIC tests in YAG medium have more clear-cut endpoints and have slightly lower MICs than those performed in RPMI medium.
(§5) The following organisms were tested: Absidia corymbifera, Aspergillus flavus, Aspergillus fumigatus AF293 and AF210, Aspergillus niger, Aspergillus terreus AT4 and AT49, Candida albicans, Candida glabrata, Candida krusei, Candida parapsilosis, Candida tropicalis, Fusarium solani, Rhizomucor sp., Scedosporium apiospermum, Scedosporium prolificans, Trichophyton mentagrophytes, and Trichophyton rubrum.

[1] = system: Aspergillus fumigatus AF210; settings: for MIC: Aspergillus fumigatus
Description: as §1, §2, §3, §4, §5

[2] = system: Aspergillus fumigatus AF293; settings: for MIC: Aspergillus fumigatus
Description: as §1, §2, §3, §4, §5

Aspergillus niger = settings: for MIC: Aspergillus niger, read-out: MIC A. niger (grade)
Description: as §1, §2, §3, §4, §5

Aspergillus terreus AT49 = settings: for MIC: Aspergillus terreus
Description: as §1, §2, §3, §4, §5

Aspergillus terreus AT4 = settings: for MIC: Aspergillus terreus
Description: as §1, §2, §3, §4, §5

[3] = YAG medium, MIC banded into grades
[4] = YAG medium, MIC banded into grades, AF210, read-out: MIC A. fumigatus 210 (grade)
[5] = YAG medium, MIC banded into grades, AF293, read-out: MIC A. fumigatus (grade)
[6] = YAG medium, MIC banded into grades, AT49, read-out: MIC A. terreus 49 (grade)
[7] = YAG medium, MIC banded into grades, AT4, read-out: MIC A. terreus (grade)

Row | Compound | MIC (Aspergillus flavus; [3]) | MIC [1, 4] | MIC [2, 5] | MIC (Aspergillus niger; [3]) | MIC (Aspergillus terreus AT49; [6]) | MIC (Aspergillus terreus AT4; [7]) | other results
1 | Cc1cc(C)nc(N2CCN(c3ccc(NC(=O)C(=O)c4c(C5CC5)cc5ccccn45)cc3)CC2)c1 [Example 58, 2-(2-Cyclopropyl-indolizin-3-yl)-N-{4-[4-(4,6-dimethyl-pyridin-2-yl)-piperazin-1-yl]-phenyl}-2-oxo-acetamide] | < 1 µg/mL | < 1 µg/mL | < 1 µg/mL | < 1 µg/mL | < 1 µg/mL | < 1 µg/mL | –
2 | CN1CCN(c2oc(-c3ccc(NC(=O)C(=O)c4c(-c5ccccc5)cc5ccccn45)cc3)nc2C(=O)C(F)(F)F)CC1 [Example 29, N-{4-[5-(4-Methyl-piperazin-1-yl)-4-(2,2,2-trifluoro-acetyl)-oxazol-2-yl]-phenyl}-2-oxo-2-(2-phenyl-indolizin-3-yl)-acetamide] | < 1 µg/mL | 1 to 10 µg/mL (≈ 1.66 to 16.6 µM) | < 1 µg/mL | < 1 µg/mL | < 1 µg/mL | < 1 µg/mL | –
3 | Cc1cc(C)nc(N(C)CCNc2ccc(NC(=O)C(=O)c3c(-c4ccccc4)cc4ccccn34)cc2)c1 [Example 78, N-(4-{2-[(4,6-Dimethyl-pyridin-2-yl)-methyl-amino]-ethylamino}-phenyl)-2-oxo-2-(2-phenyl-indolizin-3-yl)-acetamide] | < 1 µg/mL | < 1 µg/mL | < 1 µg/mL | < 1 µg/mL | < 1 µg/mL | < 1 µg/mL | –
4 | O=C1Cc2cc(NC(=O)C(=O)c3c(-c4ccccc4)cc4ccccn34)ccc2N1 [Example 9, 2-Oxo-N-(2-oxo-2,3-dihydro-1H-indol-5-yl)-2-(2-phenyl-indolizin-3-yl)-acetamide] | – | – | – | – | – | – | MIC (Aspergillus flavus): > 10 µg/mL; MIC ([1]; AF210, read-out: MIC A. fumigatus 210 (grade)): > 10 µg/mL; MIC ([2]; AF293, read-out: MIC A. fumigatus (grade)): > 10 µg/mL; MIC (Aspergillus niger): > 10 µg/mL; MIC (Aspergillus terreus AT49; AT49, read-out: MIC A. terreus 49 (grade)): > 10 µg/mL; MIC (Aspergillus terreus AT4; AT4, read-out: MIC A. terreus (grade)): > 10 µg/mL
5 | Cc1cc(C)nc(N(C)CCCN(C)c2ccc(NC(=O)C(=O)c3c(-c4ccccc4)cc4ccccn34)cc2)c1 [Example 67, N-[4-({3-[(4,6-dimethyl-pyridin-2-yl)-methyl-amino]-propyl}-methyl-amino)-phenyl]-2-oxo-2-(2-phenyl-indolizin-3-yl)-acetamide] | < 1 µg/mL | < 1 µg/mL | < 1 µg/mL | < 1 µg/mL | < 1 µg/mL | < 1 µg/mL | –
6 | CC(C)c1ncc(C(C)(C)c2ccc(NC(=O)C(=O)c3c(-c4ccccc4)cc4ccccn34)cc2)n1C [Example 17, N-{4-[1-(2-Isopropyl-3-methyl-3H-imidazol-4-yl)-1-methyl-ethyl]-phenyl}-2-oxo-2-(2-phenyl-indolizin-3-yl)-acetamide] | > 10 µg/mL | > 10 µg/mL | > 10 µg/mL | 1 to 10 µg/mL (≈ 1.98 to 19.8 µM) | 1 to 10 µg/mL (≈ 1.98 to 19.8 µM) | 1 to 10 µg/mL (≈ 1.98 to 19.8 µM) | –
7 | O=C(Nc1ccc(N2CCN(S(=O)(=O)c3cccnc3)CC2)cc1)C(=O)c1c(-c2ccccc2)cc2ccccn12 [Example 51, 2-Oxo-2-(2-phenyl-indolizin-3-yl)-N-{4-[4-(pyridine-3-sulfonyl)-piperazin-1-yl]-phenyl}-acetamide] | < 1 µg/mL | < 1 µg/mL | < 1 µg/mL | < 1 µg/mL | < 1 µg/mL | < 1 µg/mL | –
8 | CS(=O)(=O)NC(=O)c1ccc(NC(=O)C(=O)c2c(-c3ccccc3)cc3ccccn23)cc1 [Example 5, N-(4-methanesulfonylaminocarbonyl-phenyl)-2-oxo-2-(2-phenyl-indolizin-3-yl)-acetamide] | > 10 µg/mL | > 10 µg/mL | > 10 µg/mL | > 10 µg/mL | > 10 µg/mL | > 10 µg/mL | –
9 | CN1/C(=N/c2ccc(NC(=O)C(=O)c3c(-c4ccccc4)cc4ccccn34)cc2)OCC1(C)C [Example 8, 2-oxo-2-(2-phenyl-indolizin-3-yl)-N-{4-[3,4,4-trimethyl-oxazolidin-(2Z)-ylideneamino]-phenyl}-acetamide] | > 10 µg/mL | > 10 µg/mL | > 10 µg/mL | > 10 µg/mL | 1 to 10 µg/mL (≈ 2.14 to 21.4 µM) | > 10 µg/mL | –
10 | CC(C)(C)CN1CCN(c2ccc(NC(=O)C(=O)c3c(-c4ccccc4)cc4ccccn34)nc2)CC1 [Example 50, N-{5-[4-(2,2-Dimethyl-propyl)-piperazin-1-yl]-pyridin-2-yl}-2-oxo-2-(2-phenyl-indolizin-3-yl)-acetamide] | < 1 µg/mL | < 1 µg/mL | < 1 µg/mL | < 1 µg/mL | < 1 µg/mL | < 1 µg/mL | –
11 | O=C(Nc1ccc(N2CCN(c3ccc(CN4CCOCC4)cn3)CC2)cc1)C(=O)c1c(-c2ccccc2)cc2ccccn12 [Example 77, N-{4-[4-(5-morpholin-4-yl-methyl-pyridin-2-yl)-piperazin-1-yl]-phenyl}-2-oxo-2-(2-phenyl-indolizin-3-yl)-acetamide] | – | – | – | – | – | – | MIC A. flavus (grade) (Aspergillus flavus; [3]): 3 (A grade of 3 represents an MIC of less than 1 mg/L); MIC A. fumigatus 210 (grade) ([1]; YAG medium, MIC banded into grades, AF210): 3 (A grade of 3 represents an MIC of less than 1 mg/L); MIC A. fumigatus (grade) ([2]; YAG medium, MIC banded into grades, AF293): 3 (A grade of 3 represents an MIC of less than 1 mg/L); MIC A. niger (grade) (Aspergillus niger; [3]): 3 (A grade of 3 represents an MIC of less than 1 mg/L); MIC A. terreus 49 (grade) (Aspergillus terreus AT49; YAG medium, MIC banded into grades, AT49): 3 (A grade of 3 represents an MIC of less than 1 mg/L); MIC A. terreus (grade) (Aspergillus terreus AT4; YAG medium, MIC banded into grades, AT4): 3 (A grade of 3 represents an MIC of less than 1 mg/L)
12 | COCc1cc(N2CCN(c3cc(C)cc(C)n3)CC2)ccc1NC(=O)C(=O)c1c(-c2ccccc2)cc2ccccn12 [Example 83, N-{4-[4-(4,6-Dimethyl-pyridin-2-yl)-piperazin-1-yl]-2-methoxymethyl-phenyl}-2-oxo-2-(2-phenyl-indolizin-3-yl)-acetamide] | < 1 µg/mL | < 1 µg/mL | < 1 µg/mL | < 1 µg/mL | < 1 µg/mL | < 1 µg/mL | –
13 | Cc1cc(C)nc(N2CCN(c3ccc(NC(=O)C(=O)c4c(-c5ccccc5)cc5ccccn45)cc3)CC2)n1 [Example 44, N-{4-[4-(4,6-Dimethyl-pyrimidin-2-yl)-piperazin-1-yl]-phenyl}-2-oxo-2-(2-phenyl-indolizin-3-yl)-acetamide] | < 1 µg/mL | < 1 µg/mL | < 1 µg/mL | < 1 µg/mL | < 1 µg/mL | < 1 µg/mL | –
14 | COc1ccc(NC(=O)C(=O)c2c(C)c(-c3ccccc3)c3ccccn23)cc1 [Example 6, N-(4-methoxy-phenyl)-2-(2-methyl-1-phenyl-indolizin-3-yl)-2-oxo-acetamide] | > 10 µg/mL | > 10 µg/mL | > 10 µg/mL | > 10 µg/mL | > 10 µg/mL | > 10 µg/mL | –
